Results taken from US20240024347A1 (The Johns Hopkins University, priority 2020, published 2024).
Like-named read-outs stand apart in the source and are kept apart here.

How the values were obtained:
[1] = tested on: NALM6-Luc-mCh-Puro human acute lymphoblastic leukemia; test: In vivo antitumor efficacy, NALM6-Luc-mCh-Puro leukemia in female NSG mice (BLI); conditions: MK-905 40 then 20 mg/kg i.p./day, 6-MP 20 then 10 mg/kg i.p./day; for day 15 mean BLI signal: 5 days/week, vehicle 1.65×10^10; for percent of the median vehicle group tumor BLI signal: day 15
Method: (§1) The in vivo antitumor efficacy of MK-905 was evaluated in the NALM6-Luc-mCh-Puro human acute lymphoblastic leukemia in female NSG mice. Mice were inoculated with tumor cells on day 0, staged by BLI on day 3, and sorted into matched treatment groups. The primary endpoint of the study was tumor bioluminescence imaging (BLI) signal. Secondary endpoints included: animal survival, weight changes, and clinical pathology markers. Single timepoint drug metabolite testing was conducted after the first dose of MK-905. Studies were run in comparison to vehicle or 6-MP treatment.

[2] = tested on: murine NPcis (NF1^+/−;p53^+/−) tumor cells; test: Tumor growth in murine sarcoma model (subcutaneous NPcis flank tumors); assay type: in vivo, mouse
Method: (§2) C57BL/6 mice at 10 weeks of age between 25 g and 30 g were obtained from Envigo. To induce solid tumor growth in animals, 3-5 million murine NPcis (NF1^+/−;p53^+/−) tumor cells grown and harvested from cell culture, were injected subcutaneously to the right flank. […] Animals were then randomly assigned to a treatment arm: Vehicle or MK-905 (n=10/group; average tumor volume of ˜200 mm^3). […] Tumor volume was calculated by the formula: volume=(L×(W^2))/2. […]

healthy NSG mice = conditions: for Mice surviving >2 weeks: 5 d/week, i.p., healthy female NSG mice, n=5/group; for mice survived >2 weeks: 40 mg/kg group
Method: Animal weights and body condition scores were measured three times per week. After twenty one days, surviving mice were euthanized and blood collected for clinical chemistry measurements (complete blood count with differential, clinical chemistries). […] 80% of mice survived >2 weeks in the MK-905 40 mg/kg group, and 100% of mice survived the study in the vehicle and MK-905 20 mg/kg groups.

[3] = ALT (liver inflammation marker) and animal weight in sarcoma-model mice
Method: as §2

[4] = Single timepoint drug metabolite testing (6-TGMP in mouse plasma) after first dose; assay type: in vivo; conditions: two hours following initial dose
Method: as §1

SMILES	day 15 mean BLI signal [1]	percent of the median vehicle group tumor BLI signal [1] [%]	mean tumor volume ([2]; MK-905 13 mg/kg i.p., following fourteen days of dosing, vehicle 1,657 mm^3) [mm^3]	Tumor weights at sacrifice ([2]; MK-905 13 mg/kg i.p., fourteen days, vehicle 1276 mg) [mg]	mice survived the study (healthy NSG mice; 20 mg/kg group, healthy NSG mice, twenty one days) [%]	Mice surviving >2 weeks (healthy NSG mice; 20 mg/kg)	mice survived >2 weeks (healthy NSG mice; healthy NSG mice)	Mice surviving >2 weeks (healthy NSG mice; 40 mg/kg)	Animal weights relative to starting weight ([3]; MK-905 13 mg/kg i.p., fourteen days) [%]	Serum ALT as a marker of liver inflammation (in words) ([3]; MK-905 13 mg/kg i.p., fourteen days, versus vehicle)	conversion to the active 6-thioguanine monophosphate (6-TGMP) metabolite [4]	mean tumor volume ([2]; 6-MP 20 mg/kg i.p., following ten days of dosing, vehicle 2,038 mm^3)	blood ALT increase compared to vehicle-treated mice ([3]; at sacrifice, 6-MP 20 mg/kg i.p., ten days)	blood ALT as a marker of liver inflammation ([3]; at sacrifice, 6-MP 20 mg/kg i.p., ten days, vehicle 20 U/L) [U/L]
CC(C)OC(=O)[C@H](C)NP(=O)(OC[C@H]1OC(n2cnc3c(=S)[nH]c(N)nc32)C(O)C1O)Oc1ccccc1 (stereo partly drawn) [MK-905]	3.27×10^8 photons/sec	1.3	415	359	100	5/5	80%	4/5	≤ 10	normal and not significantly different	observed	–	–	–
Sc1ncnc2nc[nH]c12 [6-MP, 6-mercaptopurine, reference compound]	1.36×10^10 photons/sec	77	–	–	–	–	no mice surviving	–	–	–	no active metabolite was observed	1,107 mm^3	two-fold increased	46
